Test results taken from patent US11339128B2 (Firmenich Incorporated, priority 2014, dated 2022).

Target: T1, T1R2/T1R3 taste receptor (Homo sapiens, UniProt Q7RTX0+Q8TE23)
T1 sequence (Q8TE23 20-839): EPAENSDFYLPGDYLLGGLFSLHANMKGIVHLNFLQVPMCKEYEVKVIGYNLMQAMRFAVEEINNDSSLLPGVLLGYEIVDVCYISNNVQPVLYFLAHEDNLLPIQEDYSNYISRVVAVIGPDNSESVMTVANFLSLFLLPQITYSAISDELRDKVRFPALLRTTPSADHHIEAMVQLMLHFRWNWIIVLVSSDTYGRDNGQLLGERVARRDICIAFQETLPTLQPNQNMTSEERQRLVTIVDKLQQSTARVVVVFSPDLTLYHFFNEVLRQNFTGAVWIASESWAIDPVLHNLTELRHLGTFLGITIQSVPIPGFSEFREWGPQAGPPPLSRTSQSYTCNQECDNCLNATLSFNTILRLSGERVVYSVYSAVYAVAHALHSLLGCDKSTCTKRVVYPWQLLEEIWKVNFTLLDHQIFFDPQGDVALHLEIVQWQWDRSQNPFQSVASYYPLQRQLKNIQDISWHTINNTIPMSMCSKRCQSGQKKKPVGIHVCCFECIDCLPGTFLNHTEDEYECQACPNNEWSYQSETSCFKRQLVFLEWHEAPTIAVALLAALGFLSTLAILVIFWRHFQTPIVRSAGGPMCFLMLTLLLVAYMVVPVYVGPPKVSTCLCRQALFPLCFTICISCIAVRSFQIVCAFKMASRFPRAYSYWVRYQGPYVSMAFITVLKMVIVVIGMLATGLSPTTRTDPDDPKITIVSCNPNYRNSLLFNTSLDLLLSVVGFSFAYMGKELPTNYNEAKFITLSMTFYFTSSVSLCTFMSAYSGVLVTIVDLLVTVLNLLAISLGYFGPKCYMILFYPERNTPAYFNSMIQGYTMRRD
T1 sequence (Q7RTX0 21-852): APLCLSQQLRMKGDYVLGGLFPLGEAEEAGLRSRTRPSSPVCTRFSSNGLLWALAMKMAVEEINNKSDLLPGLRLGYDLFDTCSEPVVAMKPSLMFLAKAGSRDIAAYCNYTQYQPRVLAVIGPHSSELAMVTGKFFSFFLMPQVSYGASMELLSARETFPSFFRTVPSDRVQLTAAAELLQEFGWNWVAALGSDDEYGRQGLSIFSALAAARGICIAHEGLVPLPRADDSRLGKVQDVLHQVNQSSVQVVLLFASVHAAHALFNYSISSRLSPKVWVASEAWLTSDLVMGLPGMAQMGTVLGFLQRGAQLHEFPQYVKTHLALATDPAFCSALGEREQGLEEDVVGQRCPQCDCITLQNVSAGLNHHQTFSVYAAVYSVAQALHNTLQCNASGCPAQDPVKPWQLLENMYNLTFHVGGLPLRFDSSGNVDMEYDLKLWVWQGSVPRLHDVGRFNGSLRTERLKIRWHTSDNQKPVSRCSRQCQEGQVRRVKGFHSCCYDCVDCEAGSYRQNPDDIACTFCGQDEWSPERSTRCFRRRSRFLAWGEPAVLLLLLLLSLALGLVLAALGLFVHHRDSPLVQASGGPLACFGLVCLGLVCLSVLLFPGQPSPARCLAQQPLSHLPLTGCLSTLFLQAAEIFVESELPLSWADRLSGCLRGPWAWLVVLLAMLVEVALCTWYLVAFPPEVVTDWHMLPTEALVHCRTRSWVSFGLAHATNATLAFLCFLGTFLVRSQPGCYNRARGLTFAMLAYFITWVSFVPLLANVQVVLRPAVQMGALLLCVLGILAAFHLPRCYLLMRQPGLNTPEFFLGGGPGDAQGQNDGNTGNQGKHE
Assay: Receptor-based assay: sweetener EC50 enhancement ratio with and without test compound
Format: cell-based
Conditions: for Sucrose Enhancement EC50 Ratio: sweetener sucrose; for Sucralose Enhancement EC50 Ratio: sweetener sucralose
Procedure: Potencies (EC50 values) for the sweeteners sucrose, sucralose, and fructose were measured against the T1R2/T1R3 taste receptor. EC50 was determined using the sweetener alone and in the presence of 1 μM, 3 μM, 10 μM, or 50 μM of test compound. EC50 ratios were calculated by the ratio of potency with and without the test compound. An “A” value indicates an enhancement ratio of greater than 1 and less than 10. A “B” value indicates an enhancement ratio from 10 to 20. A “C” value indicates an enhancement ratio greater than 20.

Sucrose Enhancement EC50 Ratio (10 μM test compound) | Sucralose Enhancement EC50 Ratio (10 μM test compound) | Compound | Sucrose Enhancement EC50 Ratio (1 μM test compound) | Sucrose Enhancement EC50 Ratio (3 μM test compound) | Sucralose Enhancement EC50 Ratio (3 μM test compound) | Fructose Enhancement EC50 Ratio (50 μM test compound, sweetener fructose)
B (an enhancement ratio from 10 to 20) | – | Cc1nc2cccc(O[C@H]3CC[C@H](NC(=O)CO[C@H]4CC[C@H](C)CC4)CC3)c2c(N)c1C(=O)O [Compound 312] | A (an enhancement ratio of greater than 1 and less than 10) | A (an enhancement ratio of greater than 1 and less than 10) | – | –
– | – | Cc1nc2cccc(O[C@H]3CC[C@H](NC(=O)COC4CCOCC4)CC3)c2c(N)c1C(=O)O [Compound 314] | B (an enhancement ratio from 10 to 20) | – | B (an enhancement ratio from 10 to 20) | –
C (an enhancement ratio greater than 20) | – | CCOC(C)C(=O)N[C@H]1CC[C@H](Oc2cccc3nc(C)c(C(=O)O)c(N)c23)CC1 (some centres unmarked) [Compound 315] | B (an enhancement ratio from 10 to 20) | B (an enhancement ratio from 10 to 20) | – | –
B (an enhancement ratio from 10 to 20) | – | CCOC(C)(C)C(=O)N[C@H]1CC[C@H](Oc2cccc3nc(C)c(C(=O)O)c(N)c23)CC1 [Compound 316] | A (an enhancement ratio of greater than 1 and less than 10) | A (an enhancement ratio of greater than 1 and less than 10) | – | –
B (an enhancement ratio from 10 to 20) | – | COCCC(=O)N[C@H]1CC[C@H](Oc2cccc3nc(C)c(C(=O)O)c(N)c23)CC1 [Compound 317] | A (an enhancement ratio of greater than 1 and less than 10) | A (an enhancement ratio of greater than 1 and less than 10) | – | –
B (an enhancement ratio from 10 to 20) | B (an enhancement ratio from 10 to 20) | CCSCC(=O)N[C@H]1CC[C@H](Oc2cccc3nc(C)c(C(=O)O)c(N)c23)CC1 [Compound 318] | A (an enhancement ratio of greater than 1 and less than 10) | A (an enhancement ratio of greater than 1 and less than 10) | – | A (an enhancement ratio of greater than 1 and less than 10)
B (an enhancement ratio from 10 to 20) | B (an enhancement ratio from 10 to 20) | Cc1nc2cccc(O[C@H]3CC[C@H](NC(=O)C4CCC4)CC3)c2c(N)c1C(=O)O [Compound 320] | A (an enhancement ratio of greater than 1 and less than 10) | B (an enhancement ratio from 10 to 20) | – | –
– | – | Cc1nc2cccc(O[C@H]3CC[C@H](NC(=O)Cc4c[nH]cn4)CC3)c2c(N)c1C(=O)O [Compound 321] | A (an enhancement ratio of greater than 1 and less than 10) | A (an enhancement ratio of greater than 1 and less than 10) | – | –
– | – | CCOCC(=O)N[C@H]1CC[C@H](Oc2cccc3nc(CC)c(C(=O)O)c(N)c23)CC1 [Compound 322] | A (an enhancement ratio of greater than 1 and less than 10) | A (an enhancement ratio of greater than 1 and less than 10) | – | –
– | – | Cc1nc2cccc(O[C@H]3CC[C@H](NC(=O)CN4CCCC4)CC3)c2c(N)c1C(=O)O [Compound 323] | A (an enhancement ratio of greater than 1 and less than 10) | A (an enhancement ratio of greater than 1 and less than 10) | – | –
– | – | Cc1nc2cccc(O[C@H]3CC[C@H](NC(=O)CN(C)C)CC3)c2c(N)c1C(=O)O [Compound 324] | A (an enhancement ratio of greater than 1 and less than 10) | A (an enhancement ratio of greater than 1 and less than 10) | A (an enhancement ratio of greater than 1 and less than 10) | –
– | – | Cc1nc2cccc(O[C@H]3CC[C@H](NC(=O)Cn4ccnc4)CC3)c2c(N)c1C(=O)O [Compound 325] | A (an enhancement ratio of greater than 1 and less than 10) | B (an enhancement ratio from 10 to 20) | A (an enhancement ratio of greater than 1 and less than 10) | –
– | – | Cc1nc2cccc(O[C@H]3CC[C@H](NC(=O)COCC4CCC4)CC3)c2c(N)c1C(=O)O [Compound 326] | B (an enhancement ratio from 10 to 20) | – | – | –
– | – | Cc1nc2cccc(O[C@H]3CC[C@H](NC(=O)COc4ccccc4)CC3)c2c(N)c1C(=O)O [Compound 327] | A (an enhancement ratio of greater than 1 and less than 10) | – | – | –
C (an enhancement ratio greater than 20) | – | Cc1nc2cccc(O[C@H]3CC[C@H](NC(=O)CO[C@@H]4C[C@H](C)CC[C@H]4C(C)C)CC3)c2c(N)c1C(=O)O [Compound 328] | A (an enhancement ratio of greater than 1 and less than 10) | A (an enhancement ratio of greater than 1 and less than 10) | – | –
– | – | Cc1nc2cccc(O[C@H]3CC[C@H](NC(=O)COCCOC(C)C)CC3)c2c(N)c1C(=O)O [Compound 329] | A (an enhancement ratio of greater than 1 and less than 10) | B (an enhancement ratio from 10 to 20) | A (an enhancement ratio of greater than 1 and less than 10) | –
C (an enhancement ratio greater than 20) | – | CCC(CC)COCC(=O)N[C@H]1CC[C@H](Oc2cccc3nc(C)c(C(=O)O)c(N)c23)CC1 [Compound 331] | A (an enhancement ratio of greater than 1 and less than 10) | A (an enhancement ratio of greater than 1 and less than 10) | – | –
– | – | CCOCCOCC(=O)N[C@H]1CC[C@H](Oc2cccc3nc(C)c(C(=O)O)c(N)c23)CC1 [Compound 332] | A (an enhancement ratio of greater than 1 and less than 10) | B (an enhancement ratio from 10 to 20) | – | –
– | – | Cc1nc2cccc(O[C@H]3CC[C@H](NC(=O)COCCOCc4ccccc4)CC3)c2c(N)c1C(=O)O [Compound 333] | A (an enhancement ratio of greater than 1 and less than 10) | B (an enhancement ratio from 10 to 20) | – | –

Compound | Sucrose Enhancement EC50 Ratio (10 μM test compound) | Sucralose Enhancement EC50 Ratio (10 μM test compound) | Sucrose Enhancement EC50 Ratio (1 μM test compound) | Sucrose Enhancement EC50 Ratio (3 μM test compound) | Sucralose Enhancement EC50 Ratio (3 μM test compound) | Fructose Enhancement EC50 Ratio (50 μM test compound, sweetener fructose)
Cc1nc2cccc(O[C@H]3CC[C@H](NC(=O)COCC4CC4)CC3)c2c(N)c1C(=O)O [Compound 313] | A (an enhancement ratio of greater than 1 and less than 10) | – | A (an enhancement ratio of greater than 1 and less than 10) | C (an enhancement ratio greater than 20) | – | –
Cc1nc2cccc(O[C@H]3CC[C@H](NC(=O)CCCC(C)C)CC3)c2c(N)c1C(=O)O [Compound 319] | A (an enhancement ratio of greater than 1 and less than 10) | – | A (an enhancement ratio of greater than 1 and less than 10) | A (an enhancement ratio of greater than 1 and less than 10) | – | –
Cc1cnn(CC(=O)N[C@H]2CC[C@H](Oc3cccc4nc(C)c(C(=O)O)c(N)c34)CC2)c1 [Compound 330] | A (an enhancement ratio of greater than 1 and less than 10) | – | A (an enhancement ratio of greater than 1 and less than 10) | A (an enhancement ratio of greater than 1 and less than 10) | – | –
